From patent US11649246B2, “Salts of 4-amino-N-(l-((3-chloro-2-fluorophenyl)amino)-6-methylisoquinolin-5-yl)thieno[3,2-D]pyrimidine-7-carboxamide, and crystalline forms thereof” (Hanmi Pharm. Co., Ltd., priority 2017, dated 2023)
≈ marks a conversion by molar mass, not a printed value. Read-outs that look alike come from different tables or passages of the source.

What was measured:
Format in all cases: physicochemical
[1] = Solubility of bis-hydrochloride Form I by HPLC test and observation test
Protocol: Solubility was measured by HPLC according to KP, USP and EP general chapters. […] The results of solubility were same between HPLC test and observation test.

[2] = Hygroscopicity by dynamic vapor sorption (DVS); conditions: Form I trihydrate
Protocol: Dynamic vapor sorption (DVS) analysis was performed in a DVS advantage (Surface measurement system, United Kingdom) analyzer at 25° C. with a relative humidity of 0% to 90%. A sample in an amount of 10 mg was placed into a wire-mesh vapor sorption balance pan and then attached to a DVS advantage dynamic vapor sorption balance via surface measurement systems. […] Upon completion of the sorption cycle, the sample was dried using the same process while maintaining a relative humidity of 0%. The changes in the sample weight during the adsorption/desorption cycle (repeated 3 times) were recorded and the hygroscopicity of the sample was measured. DVS isotherm diagrams are presented in FIGS. 1, 3, 6, 10, 13, 16 and 19 where Target PP (%) refers to relative humidity, “SORP” refers to adsorption and “DESORP” refers to desorption.
Hygroscopicity was measured by DVS where the DVS curve for Formula (I) bis-hydrochloride was recorded in a DVS Advantage I analyzer (SMS, United Kingdom). The DVS was operated over 3 cycles for measurement of the surface adsorption effects of water, from 0% RH to 90% RH at 25°.

[3] = Partition / distribution coefficient octanol-water (Sirius T3); conditions: octanol/water
Protocol: The partition coefficient, Log P, was measured with a T3 (Sirius Analytical Instrument Ltd., UK). About 1 mg of Formula (I) bis-hydrochloride was added to a 15 mL GLpKa beaker, dissolved with octanol/150 mM KCl, adjusted to pH 1.8 with 0.5 N HCl, and titrated up to pH 12.2 with 0.5 N KOH. The partition coefficient of the octanol-water system was determined by correcting the difference between titration curves of the blank from the titration curve, by inserting the value of the dissociation constant measured previously.

[4] = Dissociation constant (pKa), GLpKa method, Sirius T3; conditions: for pKa: MDM co-solvent solution (ISA Water/MeOH/ACN/p-Dioxane), 43% MDM solution
Protocol: Based on these pKa values, Formula (I) is believed to be weakly basic compound.
The dissociation, pKa, was measured with a T3 (Sirius Analytical Instrument Ltd., UK). About 1 mg of Formula (I) bis-hydrochloride was transferred to a GLpKa beaker, dissolved with 43% to 53% MDM solution (ISA Water/MeOH/ACN/p-Dioxane=40/20/20/20, Sirius), adjusted to pH 1.8 with 0.5 N HCl, and titrated up to pH 12.2 with 0.5 N KOH. The pKa as an aqueous solution was calculated by extrapolation.

[5] = as an aqueous solution, calculated by extrapolation

Question: Which “solubility” value ([1]; ACN) does the source give for `Cc1ccc2c(Nc3cccc(Cl)c3F)nccc2c1NC(=O)c1csc2c(N)ncnc12` [Example 3, 4-amino-N-(1-((3-chloro-2-fluorophenyl)amino)-6-methylisoquinolin-5-yl)thieno[3,2-d]pyrimidine-7-carboxamide] here?
Answer: Its value is 113431 mL/g.

Question: And the “Solubility Observation” value ([1]; ACN, listed as Formula (I) bis-hydrochloride Form I)?
Answer: The value was “Practically insoluble”.

Question: And the “solubility” value ([1]; DMSO)?
Answer: Its value is 8 mL/g.

Question: And the “Solubility Observation” value ([1]; DMSO, listed as Formula (I) bis-hydrochloride Form I)?
Answer: The value was “Freely soluble”.

Question: And the “solubility” value ([1]; Dichloromethane)?
Answer: The value was 366289 mL/g.

Question: What about the “Solubility Observation” value ([1]; Dichloromethane, listed as Formula (I) bis-hydrochloride Form I) of the same molecule?
Answer: Its value is “Practically insoluble”.

Question: What about the “solubility” value ([1]; Ethanol) of the same molecule?
Answer: The value was 1316 mL/g.

Question: And the “Solubility Observation” value ([1]; Ethanol, listed as Formula (I) bis-hydrochloride Form I)?
Answer: The value was “Very slightly soluble”.

Question: What about the “solubility” value ([1]; Ethyl acetate) of the same molecule?
Answer: The value was 356535 mL/g.

Question: What about the “Solubility Observation” value ([1]; Ethyl acetate, listed as Formula (I) bis-hydrochloride Form I) of the same molecule?
Answer: The value was “Practically insoluble”.

Question: What about the “solubility” value ([1]; Ethyl ether) of the same molecule?
Answer: The value was 522061 mL/g.

Question: What about the “Solubility Observation” value ([1]; Ethyl ether, listed as Formula (I) bis-hydrochloride Form I) of the same molecule?
Answer: Its value is “Practically insoluble”.

Question: And the “solubility” value ([1]; Methanol)?
Answer: The value was 58 mL/g.

Question: What about the “Solubility Observation” value ([1]; Methanol, listed as Formula (I) bis-hydrochloride Form I) of the same molecule?
Answer: The value was “Sparingly soluble”.

Question: What about the “solubility” value ([1]; Water) of the same molecule?
Answer: Its value is 654940 mL/g.

Question: And the “Solubility Observation” value ([1]; Water, listed as Formula (I) bis-hydrochloride Form I)?
Answer: Its value is “Practically insoluble”.

Question: What about the solubility ([1]; aqueous buffer, thermodynamic from solid, pH 3.0 buffer, read-out: Solubility) of the same molecule?
Answer: The solubility was 20 µg/mL (≈ 41.8 µM).

Question: What about the solubility ([1]; aqueous buffer, thermodynamic from solid, pH 4.0 buffer, read-out: Solubility) of the same molecule?
Answer: Its solubility is 3 µg/mL (≈ 6.26 µM).

Question: And the solubility ([1]; aqueous buffer, thermodynamic from solid, pH 5.0 buffer, read-out: Solubility)?
Answer: Its solubility is 0.09 µg/mL (≈ 0.188 µM).

Question: What about the solubility ([1]; aqueous buffer, thermodynamic from solid, pH 6.0 buffer, read-out: Solubility) of the same molecule?
Answer: The solubility was 0.1 µg/mL (≈ 0.209 µM).

Question: What about the solubility ([1]; aqueous buffer, thermodynamic from solid, pH 6.8 buffer, read-out: Solubility) of the same molecule?
Answer: Its solubility is 0.09 µg/mL (≈ 0.188 µM).

Question: And the solubility ([1]; aqueous buffer, thermodynamic from solid, pH 7.0 buffer, read-out: Solubility)?
Answer: Its solubility is 0.06 µg/mL (≈ 0.125 µM).

Question: And the solubility ([1]; aqueous buffer, thermodynamic from solid, pH 8.0 buffer, read-out: Solubility)?
Answer: Its solubility is 0.05 µg/mL (≈ 0.104 µM).

Question: What about the “solubility” value ([1]; n-Hexane) of the same molecule?
Answer: Its value is 22316479 mL/g.

Question: And the “Solubility Observation” value ([1]; n-Hexane, listed as Formula (I) bis-hydrochloride Form I)?
Answer: The value was “Practically insoluble”.

Question: And the solubility ([1]; organic solvent or mixture, thermodynamic from solid, ACN, read-out: Solubility)?
Answer: The solubility was 8 µg/mL (≈ 16.7 µM).

Question: What about the solubility ([1]; organic solvent or mixture, thermodynamic from solid, DMSO, read-out: Solubility) of the same molecule?
Answer: Its solubility is 131000 µg/mL (≈ 273000 µM).

Question: What about the solubility ([1]; organic solvent or mixture, thermodynamic from solid, Dichloromethane, read-out: Solubility) of the same molecule?
Answer: Its solubility is 2.7 µg/mL (≈ 5.64 µM).

Question: What about the solubility ([1]; organic solvent or mixture, thermodynamic from solid, Ethanol, read-out: Solubility) of the same molecule?
Answer: The solubility was 800 µg/mL (≈ 1670 µM).

Question: And the solubility ([1]; organic solvent or mixture, thermodynamic from solid, Ethyl acetate, read-out: Solubility)?
Answer: The solubility was 2.8 µg/mL (≈ 5.85 µM).

Question: What about the solubility ([1]; organic solvent or mixture, thermodynamic from solid, Ethyl ether, read-out: Solubility) of the same molecule?
Answer: The solubility was 1.9 µg/mL (≈ 3.97 µM).

Question: And the solubility ([1]; organic solvent or mixture, thermodynamic from solid, Methanol, read-out: Solubility)?
Answer: The solubility was 17400 µg/mL (≈ 36300 µM).

Question: And the solubility ([1]; organic solvent or mixture, thermodynamic from solid, n-Hexane, read-out: Solubility)?
Answer: Its solubility is 0.04 µg/mL (≈ 0.0835 µM).

Question: What about the “solubility” value ([1]; pH 1.2 buffer) of the same molecule?
Answer: Its value is 3811 mL/g.

Question: And the “Solubility Observation” value ([1]; pH 1.2 buffer, listed as Formula (I) bis-hydrochloride Form I)?
Answer: Its value is “Very slightly soluble”.

Question: And the “solubility” value ([1]; pH 2.0 buffer)?
Answer: The value was 1688 mL/g.

Question: And the “Solubility Observation” value ([1]; pH 2.0 buffer, listed as Formula (I) bis-hydrochloride Form I)?
Answer: Its value is “Very slightly soluble”.

Question: And the “Solubility Observation” value ([1]; pH 3.0 buffer)?
Answer: Its value is “Practically insoluble”.

Question: And the “solubility” value ([1]; pH 3.0 buffer)?
Answer: The value was 42855 mL/g.

Question: And the “Solubility Observation” value ([1]; pH 4.0 buffer)?
Answer: The value was “Practically insoluble”.

Question: And the “solubility” value ([1]; pH 4.0 buffer)?
Answer: Its value is 331069 mL/g.

Question: And the “Solubility Observation” value ([1]; pH 5.0 buffer)?
Answer: Its value is “Practically insoluble”.

Question: And the “solubility” value ([1]; pH 5.0 buffer)?
Answer: Its value is 10759731 mL/g.

Question: And the “Solubility Observation” value ([1]; pH 6.0 buffer)?
Answer: Its value is “Practically insoluble”.

Question: What about the “solubility” value ([1]; pH 6.0 buffer) of the same molecule?
Answer: Its value is 9770999 mL/g.

Question: What about the “Solubility Observation” value ([1]; pH 6.8 buffer) of the same molecule?
Answer: Its value is “Practically insoluble”.

Question: What about the “solubility” value ([1]; pH 6.8 buffer) of the same molecule?
Answer: The value was 11528283 mL/g.

Question: And the “Solubility Observation” value ([1]; pH 7.0 buffer)?
Answer: Its value is “Practically insoluble”.

Question: And the “solubility” value ([1]; pH 7.0 buffer)?
Answer: Its value is 16139597 mL/g.

Question: What about the “Solubility Observation” value ([1]; pH 8.0 buffer) of the same molecule?
Answer: The value was “Practically insoluble”.

Question: What about the “solubility” value ([1]; pH 8.0 buffer) of the same molecule?
Answer: The value was 21884199 mL/g.

Question: What about the solubility ([1]; simulated gastric fluid, thermodynamic from solid, pH 1.2 buffer, read-out: Solubility) of the same molecule?
Answer: The solubility was 300 µg/mL (≈ 626 µM).

Question: And the solubility ([1]; simulated gastric fluid, thermodynamic from solid, pH 2.0 buffer, read-out: Solubility)?
Answer: Its solubility is 600 µg/mL (≈ 1250 µM).

Question: And the solubility ([1]; thermodynamic from solid, Water, read-out: Solubility)?
Answer: The solubility was 1.5 µg/mL (≈ 3.13 µM).

Question: What about the “water content (DVS)” value ([2]; at 20% relative humidity (sorption and desorption)) of the same molecule?
Answer: Its value is “about 9%”.

Question: And the “water content (DVS)” value ([2]; at 90% relative humidity (sorption and desorption))?
Answer: The value was “about 14%”.

Question: And the logD ([3]; pH 1)?
Answer: Its logD is 0.02.

Question: What about the logD ([3]; pH 1.2) of the same molecule?
Answer: Its logD is 0.05.

Question: And the logD ([3]; pH 2)?
Answer: The logD was 0.77.

Question: What about the logD ([3]; pH 3) of the same molecule?
Answer: The logD was 2.64.

Question: And the logD ([3]; pH 4)?
Answer: The logD was 4.26.

Question: And the logD ([3]; pH 5)?
Answer: Its logD is 5.06.

Question: What about the logD ([3]; pH 6) of the same molecule?
Answer: The logD was 5.22.

Question: What about the logD ([3]; pH 6.5) of the same molecule?
Answer: Its logD is 5.24.

Question: What about the logD ([3]; pH 7) of the same molecule?
Answer: The logD was 5.24.

Question: What about the logD ([3]; pH 8) of the same molecule?
Answer: Its logD is 5.24.

Question: And the logD ([3]; pH 9)?
Answer: The logD was 5.23.

Question: And the logD ([3]; pH 10)?
Answer: Its logD is 5.11.

Question: What about the logD ([3]; pH 11) of the same molecule?
Answer: Its logD is 4.71.

Question: What about the logD ([3]; pH 12) of the same molecule?
Answer: Its logD is 4.4.

Question: And the pKa ([4]; column 1, read-out: pKa (first value))?
Answer: The pKa was 3.85.

Question: What about the pKa ([4]; column 1, read-out: pKa (second value)) of the same molecule?
Answer: Its pKa is 4.71.

Question: And the pKa ([4]; column 1, read-out: pKa (third value))?
Answer: Its pKa is 10.4.

Question: And the pKa ([4]; column 2, read-out: pKa (first value))?
Answer: The pKa was 3.88.

Question: And the pKa ([4]; column 2, read-out: pKa (second value))?
Answer: Its pKa is 4.7.

Question: What about the pKa ([4]; column 2, read-out: pKa (third value)) of the same molecule?
Answer: Its pKa is 10.4.

Question: And the pKa ([4]; column 3, read-out: pKa (first value))?
Answer: The pKa was 3.84.

Question: What about the pKa ([4]; column 3, read-out: pKa (second value)) of the same molecule?
Answer: Its pKa is 4.69.

Question: And the pKa ([4]; column 3, read-out: pKa (third value))?
Answer: Its pKa is 10.4.

Question: What about the pKa1 [4, 5] of the same molecule?
Answer: The pKa1 was 3.86.

Question: What about the pKa2 [4, 5] of the same molecule?
Answer: Its pKa2 is 4.73.

Question: And the pKa3 ([4]; as an aqueous solution, calculated by extrapolation, listed as Formula (I) bis-hydrochloride Form I)?
Answer: Its pKa3 is 10.3.
